Assay results taken from ChEMBL document CHEMBL5376009 (RSC Med Chem, 2024).

What was measured:
Type in all cases: functional, organism-based
Influenza A virus [1] = experiment: Antiviral activity against influenza A virus A/WSN/1933 (H1N1) infected in MDCK cells harbouring TamiFlu sensitive neuraminidase 274Y mutant assessed as reduction in cytopathic effect by DAPI staining based analysis
Influenza A virus [2] = experiment: Antiviral activity against influenza A virus A/WSN/1933 (H1N1) harboring Tamiflu- sensitive neuraminidase (274Y) infected in MDCK cells assessed as reduction in cytopathic effect by fluorescence based analysis
Influenza A virus [3] = experiment: Antiviral activity against influenza A virus A/WSN/1933 (H1N1) infected in MDCK cells harbouring TamiFlu sensitive neuraminidase 274H mutant assessed as reduction in cytopathic effect by DAPI staining based analysis
Influenza A virus [4] = experiment: Antiviral activity against influenza A virus A/WSN/1933 (H1N1) harboring Tamiflu- sensitive neuraminidase (274H) infected in MDCK cells assessed as reduction in cytopathic effect by fluorescence based analysis
Influenza A virus [5] = experiment: Antiviral activity against Oseltamivir-resistant Influenza A virus (H1N1) pdm09

SMILES | EC50 (Influenza A virus [1]) | EC50 (Influenza A virus [2]) | EC50 (Influenza A virus [3]) | IC50 (Influenza A virus [4]) | EC50 (Influenza A virus [5])
Cc1onc(-c2ccccc2Cl)c1C(=O)N1CCN(c2ccc([N+](=O)[O-])cc2Cl)CC1 | 140 nM | 140 nM | 140 nM | 70 nM | –
COc1cccc(OC)c1C(=O)/C=C/c1nc(C)c(C)nc1C | – | – | – | – | 1040 nM
